{
  "source": "patent US6482850B2",
  "about": "“Hydrolysis-promoting hydrophobic taxane derivatives” (priority 1995, dated 2002)",
  "key": {"[1]": {"test_system": "human MCF-7 breast carcinoma cells", "assay": "HTD cytotoxicity, growth inhibition of MCF-7 cells (Table 1)", "type": "cell-based", "conditions": "MCF-7, 72-hour incubation; ± standard deviation"}, "[2]": {"test_system": "A-549 human lung carcinoma", "assay": "In vitro sensitivity, sulforhodamine B cytotoxicity assay, A-549 (Table 2)", "type": "cell-based", "conditions": "72-hour incubation; averaged from two separate experiments", "protocol": "Briefly, 96-well microtiter plates were inoculated (100 μL/well) with 5×10^3 (A549) or 7.5×10^3 (OVCAR-3) cells/well, in RPMI-1640 supplemented with 10% FBS (growth media). The plates were incubated for 24 hr at 37° C., 100% humidity and 5% CO2. At 24 hours, growth media (100 μL) was added to designated “time zero” plates. Similarly, serial dilutions of drug or vehicle (in media) were added (100 μL aliquots) to the test and vehicle control wells at twice the predetermined highest concentration. […] Cells (including time zero plates) were then fixed with 50 μL of 50% trichloroacetic acid (TCA) (w:v) for adherent cells or 80% TCA for suspended cells, and plates refrigerated at 4° C. for 1 hr. […] The plates were then air-dried for 24 hr."}, "[3]": {"test_system": "MCF-7 human breast carcinoma", "assay": "In vitro sensitivity, sulforhodamine B cytotoxicity assay, MCF-7 (Table 2)", "type": "cell-based", "conditions": "72-hour incubation; averaged from two separate experiments"}, "[4]": {"test_system": "MCF-7/ADR (adriamycin-resistant)", "assay": "In vitro sensitivity, sulforhodamine B cytotoxicity assay, MCF-7/ADR (Table 2)", "type": "cell-based, human", "conditions": "72-hour incubation; averaged from two separate experiments"}, "[5]": {"test_system": "HT-29 human colon carcinoma cells", "assay": "In vitro sensitivity, sulforhodamine B cytotoxicity assay, HT-29 (Table 2)", "type": "cell-based", "conditions": "72-hour incubation; averaged from two separate experiments"}, "CDF1 female mice": {"test_system": "CDF1 female mice", "assay": "Acute toxicity of liposomal paclitaxel or paclitaxel derivative given intraperitoneally", "conditions": "liposomes, i.p.", "protocol": "Moreover, liposomes containing either paclitaxel or a 2′-(2-bromo) hydrophobic paclitaxel derivative (containing either a six-carbon (C-6), C-8, C-12, C-14 or C-16 acyl chain at the 2′ position) were administered, intraperitoneally in 5 doses, to SCID (severe combined inimunodeficiency) mice bearing a human ovarian cancer (OvCar 3), at a dose of 12.5 mg paclitaxel per kg or a dose of 50 mg paclitaxel derivative per kg.\nCDF1 female mice, 5 or 10 mice per group, were intraperitoneally administered either paclitaxel-, 2′-C6-paclitaxel derivative-, or 2′-C16-paclitaxel derivative-containing liposomes, in a single dose, or 5 doses, of either 12.5, 25, 50, 100, 200, 300. 400 or 500 mg of paclitaxel or paclitaxel derivative per kg of mouse body weight."}},
  "data": [
    {"smiles": "CCCCCC(=O)OC(C(=O)OC1CC2(O)C(OC(=O)c3ccccc3)C3C4(OC(C)=O)COC4CC(O)C3(C)C(=O)C(OC(C)=O)C(=C1C)C2(C)C)C(NC(=O)c1ccccc1)c1ccccc1", "note": "(centres unmarked) [2′-Hexanoyl-]", "values": [
      {"measurement": "GI50", "setting": "[1]", "result": "500 ± 151", "unit": "nM"}
    ]},
    {"smiles": "CCCCCC(=O)OC1CC2OCC2(OC(C)=O)C2C(OC(=O)c3ccccc3)C3(O)CC(OC(=O)C(OC(C)=O)C(NC(=O)c4ccccc4)c4ccccc4)C(C)=C(C(OC(C)=O)C(=O)C12C)C3(C)C", "note": "(centres unmarked) [2′-Acetyl-7-Hexanoyl-]", "values": [
      {"measurement": "GI50", "setting": "[1]", "result": "4460 ± 60", "unit": "nM"}
    ]},
    {"smiles": "CCCCCC(=O)OC(C(=O)OC1CC2(O)C(OC(=O)c3ccccc3)C3C4(OC(C)=O)COC4CC(OC(=O)CCCCC)C3(C)C(=O)C(OC(C)=O)C(=C1C)C2(C)C)C(NC(=O)c1ccccc1)c1ccccc1", "note": "(centres unmarked) [2′,7-diHexanoyl-]", "values": [
      {"measurement": "GI50", "setting": "[1]", "result": "> 10000", "unit": "nM"}
    ]},
    {"smiles": "CCCCCCC(Br)C(=O)O[C@@H](C(=O)O[C@H]1C[C@@]2(O)[C@@H](OC(=O)c3ccccc3)[C@@H]3[C@]4(OC(C)=O)CO[C@@H]4C[C@H](O)[C@@]3(C)C(=O)[C@H](OC(C)=O)C(=C1C)C2(C)C)[C@@H](NC(=O)c1ccccc1)c1ccccc1", "note": "(some centres unmarked) [2′-2-Bromo-C8-Paclitaxel, 2′-(2-bromocapryanoyl) paclitaxel]", "values": [
      {"measurement": "GI50", "setting": "[2]", "result": 4.4, "unit": "nM"},
      {"measurement": "GI50", "setting": "[3]", "result": 2.9, "unit": "nM"},
      {"measurement": "GI50", "setting": "[4]", "result": "> 10000", "unit": "nM"},
      {"measurement": "GI50", "setting": "[5]", "result": 3.1, "unit": "nM"}
    ]},
    {"smiles": "CC(=O)OC1C(=O)C2(C)C(O)CC3OCC3(OC(C)=O)C2C(OC(=O)c2ccccc2)C2(O)CC(OC(=O)C(OC(=O)CCCCCBr)C(NC(=O)c3ccccc3)c3ccccc3)C(C)=C1C2(C)C", "note": "(centres unmarked) [2′-6-Bromohexanoyl-]", "values": [
      {"measurement": "GI50", "setting": "[1]", "result": "> 10000", "unit": "nM"}
    ]},
    {"smiles": "CCCCCCCCCCC(Br)C(=O)OC(C(=O)OC1CC2(O)C(OC(=O)c3ccccc3)C3C4(OC(C)=O)COC4CC(O)C3(C)C(=O)C(OC(C)=O)C(=C1C)C2(C)C)C(NC(=O)c1ccccc1)c1ccccc1", "note": "(centres unmarked) [2′-2-Bromo-C12-Paclitaxel, 2′-(2 bromolauranoyl) paclitaxel]", "values": [
      {"measurement": "GI50", "setting": "[2]", "result": 4.4, "unit": "nM"},
      {"measurement": "GI50", "setting": "[3]", "result": 2.8, "unit": "nM"},
      {"measurement": "GI50", "setting": "[4]", "result": "> 10000", "unit": "nM"},
      {"measurement": "GI50", "setting": "[5]", "result": 3.2, "unit": "nM"}
    ]},
    {"smiles": "CCCCC(Br)C(=O)O[C@@H](C(=O)O[C@H]1C[C@@]2(O)[C@@H](OC(=O)c3ccccc3)[C@@H]3[C@]4(OC(C)=O)CO[C@@H]4C[C@H](O)[C@@]3(C)C(=O)[C@H](OC(C)=O)C(=C1C)C2(C)C)[C@@H](NC(=O)c1ccccc1)c1ccccc1", "note": "(mixture of isomers) [2′-2-Bromohexanoyl-, 2′-(R)-[(±)-2-Bromohexanoyl] taxol]", "values": [
      {"measurement": "GI50", "setting": "[1]", "result": "3 ± 0.2", "unit": "nM"},
      {"measurement": "GI50", "setting": "[2]", "result": 3.9, "unit": "nM"},
      {"measurement": "GI50", "setting": "[3]", "result": 2.3, "unit": "nM"},
      {"measurement": "GI50", "setting": "[4]", "result": "> 10000", "unit": "nM"},
      {"measurement": "GI50", "setting": "[5]", "result": 2.4, "unit": "nM"},
      {"measurement": "number of mice that died within the first 14 days post-injection/total", "setting": "CDF1 female mice; five doses of 50 mg/kg", "result": "0/5"},
      {"measurement": "number of mice that died within the first 14 days post-injection/total", "setting": "CDF1 female mice; single dose 200 mg/kg", "result": "0/2"},
      {"measurement": "number of mice that died within the first 14 days post-injection/total", "setting": "CDF1 female mice; single dose 300 mg/kg", "result": "4/5"},
      {"measurement": "number of mice that died within the first 14 days post-injection/total", "setting": "CDF1 female mice; single dose 400 mg/kg", "result": "5/5"},
      {"measurement": "number of mice that died within the first 14 days post-injection/total", "setting": "CDF1 female mice; single dose 500 mg/kg", "result": "5/5"}
    ]},
    {"smiles": "CC(=O)OC1C(=O)C2(C)C(OC(=O)CCCCCBr)CC3OCC3(OC(C)=O)C2C(OC(=O)c2ccccc2)C2(O)CC(OC(=O)C(O)C(NC(=O)c3ccccc3)c3ccccc3)C(C)=C1C2(C)C", "note": "(centres unmarked) [7-6-Bromohexanoyl-]", "values": [
      {"measurement": "GI50", "setting": "[1]", "result": "18 ± 2", "unit": "nM"}
    ]},
    {"smiles": "CCCCCCCCCCCCC(Br)C(=O)OC(C(=O)OC1CC2(O)C(OC(=O)c3ccccc3)C3C4(OC(C)=O)COC4CC(O)C3(C)C(=O)C(OC(C)=O)C(=C1C)C2(C)C)C(NC(=O)c1ccccc1)c1ccccc1", "note": "(centres unmarked) [2′-2-Bromo-C14-Paclitaxel, 2′-(2 bromomyrstanoyl) paclitaxel]", "values": [
      {"measurement": "GI50", "setting": "[2]", "result": 31.7, "unit": "nM"},
      {"measurement": "GI50", "setting": "[3]", "result": 16, "unit": "nM"},
      {"measurement": "GI50", "setting": "[4]", "result": "> 10000", "unit": "nM"},
      {"measurement": "GI50", "setting": "[5]", "result": 20.6, "unit": "nM"}
    ]},
    {"smiles": "CCCCCC(=O)OC1CC2OCC2(OC(C)=O)C2C(OC(=O)c3ccccc3)C3(O)CC(OC(=O)C(O)C(NC(=O)c4ccccc4)c4ccccc4)C(C)=C(C(OC(C)=O)C(=O)C12C)C3(C)C", "note": "(centres unmarked) [7-Hexanoyl-]", "values": [
      {"measurement": "GI50", "setting": "[1]", "result": "27 ± 19", "unit": "nM"}
    ]},
    {"smiles": "CCCCC(Br)C(=O)OC1CC2OCC2(OC(C)=O)C2C(OC(=O)c3ccccc3)C3(O)CC(OC(=O)C(O)C(NC(=O)c4ccccc4)c4ccccc4)C(C)=C(C(OC(C)=O)C(=O)C12C)C3(C)C", "note": "(centres unmarked) [7-2-Bromohexanoyl-]", "values": [
      {"measurement": "GI50", "setting": "[1]", "result": "4.6 ± 0.1", "unit": "nM"}
    ]}
  ]
}
